Measurements reported in patent US20120045505A1, “FIXED DOSE DRUG COMBINATION FORMULATIONS” (Dr. Reddy's Laboratories, Inc., priority 2004, published 2012).

How the values were obtained:
[1] = In vitro dissolution of capsules, USP Type 1 (Basket) apparatus, 900 mL medium, 100 rpm; type: physicochemical
Description: Dissolution profiles for drugs in capsules prepared above are determined in various media using the USP procedure and the following conditions: Type 1 (Basket) apparatus; 900 mL medium; and 100 rpm rotation. Values in the following tables are cumulative percentages of the specified drug that dissolves in the specified times. […]

[2] = Storage stability of capsules in closed HDPE bottles at 40° C. and 75% relative humidity for 6 months: drug content and drug-related impurities; type: physicochemical
Description: Capsules prepared above are stored in closed high-density polyethylene (HDPE) bottles at 40° C. and 75% relative humidity for 6 months, and are analyzed for drug content and the levels of drug-related impurity formation.
Capsules prepared above are stored in closed HDPE bottles at 40° C. and 75% relative humidity for 6 months, and are analyzed for drug content and the levels of drug-related impurities.

[3] = Example 3 capsule, 0.1N HCl, 30 Minutes
[4] = Example 3 capsule, 0.1N HCl, 60 Minutes
[5] = Example 3 capsule, pH 2.1 SGF, 30 Minutes
[6] = Example 3 capsule, pH 2.1 SGF, 60 Minutes
[7] = Example 3 capsule, pH 4.5 Acetate buffer USP, 30 Minutes
[8] = Example 3 capsule, pH 4.5 Acetate buffer USP, 60 Minutes
[9] = Example 4 capsule, 0.1N HCl, 30 Minutes
[10] = Example 4 capsule, 0.1N HCl, 60 Minutes
[11] = Example 4 capsule, pH 2.1 SGF, 30 Minutes
[12] = Example 4 capsule, pH 2.1 SGF, 60 Minutes
[13] = Example 4 capsule, pH 4.5 Acetate buffer USP, 30 Minutes
[14] = Example 4 capsule, pH 4.5 Acetate buffer USP, 60 Minutes
[15] = Example 3 capsule, 6 Months at 40° C. and 75% relative humidity, closed HDPE bottles
[16] = Example 3 capsule, 6 Months, 40° C./75% RH
[17] = Example 4 capsule, 6 Months at 40° C. and 75% relative humidity, closed HDPE bottles
[18] = Example 4 capsule, 6 Months, 40° C./75% RH, capsule containing hydrochlorothiazide
[19] = Example 4 capsule, Initial, capsule containing hydrochlorothiazide
[20] = Example 4 capsule, pH 6.8 Phosphate buffer USP, 30 Minutes
[21] = Example 4 capsule, pH 6.8 Phosphate buffer USP, 60 Minutes
[22] = Example 4 capsule, 6 Months, 40° C./75% RH

cumulative percentage of drug dissolved [1, 3]	cumulative percentage of drug dissolved [1, 4]	cumulative percentage of drug dissolved [1, 5]	cumulative percentage of drug dissolved [1, 6]	cumulative percentage of drug dissolved [1, 7]	cumulative percentage of drug dissolved [1, 8]	cumulative percentage of drug dissolved [1, 9]	cumulative percentage of drug dissolved [1, 10]	cumulative percentage of drug dissolved [1, 11]	cumulative percentage of drug dissolved [1, 12]	cumulative percentage of drug dissolved [1, 13]	cumulative percentage of drug dissolved [1, 14]	Assay (drug content) [2, 15]	Assay (drug content) ([2]; Example 3 capsule, Initial)	Assay (drug content) [2, 17]	Assay (drug content) ([2]; Example 4 capsule, Initial)	SMILES	cumulative percentage of drug dissolved [1, 20]	cumulative percentage of drug dissolved [1, 21]	other results
96%	98%	99%	100%	88%	89%	96%	98%	99%	100%	88%	89%	101.5 % of label content	100.3 % of label content	101.3 % of label content	101.2 % of label content	CC(=O)Oc1ccccc1C(=O)O [Aspirin]	–	–	cumulative percentage of drug dissolved ([1]; Example 3 capsule, 0.01N HCl, 30 Minutes): 87%; cumulative percentage of drug dissolved ([1]; Example 3 capsule, 0.01N HCl, 60 Minutes): 89%; cumulative percentage of drug dissolved ([1]; Example 4 capsule, 0.01N HCl, 30 Minutes): 87%; cumulative percentage of drug dissolved ([1]; Example 4 capsule, 0.01N HCl, 60 Minutes): 89%; Impurity: Salicylic acid [2, 16]: 0.68 % of label content; Impurity: Salicylic acid ([2]; Example 3 capsule, Initial): 0.17 % of label content; Impurity: Salicylic acid [2, 18]: 0.31 % of label content; Impurity: Salicylic acid [2, 19]: 0.13 % of label content
–	–	–	–	–	–	–	–	–	–	–	–	98.7 % of label content	100.3 % of label content	–	–	CC(C)NCC(O)COc1ccc(CC(N)=O)cc1 (stereo not drawn) [Atenolol]	–	–	–
97%	96%	102%	105%	97%	96%	100%	100%	95%	98%	100%	102%	98.7 % of label content	98.5 % of label content	99.0 % of label content	97.8 % of label content	NCCCC[C@H](N[C@@H](CCc1ccccc1)C(=O)O)C(=O)N1CCC[C@H]1C(=O)O [Lisinopril]	94%	95%	cumulative percentage of drug dissolved ([1]; Example 3 capsule, pH 6.5 SIF, 30 Minutes): 92%; cumulative percentage of drug dissolved ([1]; Example 3 capsule, pH 6.5 SIF, 60 Minutes): 97%; cumulative percentage of drug dissolved ([1]; Example 3 capsule, pH 6.8 Phosphate buffer USP, 30 Minutes): 96%; cumulative percentage of drug dissolved ([1]; Example 3 capsule, pH 6.8 Phosphate buffer USP, 60 Minutes): 96%; Impurity: RSS isomer [2, 16]: 0.12 % of label content; Impurity: SSS DKP [2, 16]: 0.009 % of label content; Impurity: RSS isomer ([2]; Example 3 capsule, Initial): 0.09 % of label content; Impurity: RSS isomer [2, 18]: 0.09 % of label content; Impurity: SSS DKP [2, 18]: 0.33 % of label content; Impurity: RSS isomer [2, 19]: 0.09 % of label content; Impurity: SSS DKP [2, 19]: 0.05 % of label content

SMILES	cumulative percentage of drug dissolved [1, 3]	cumulative percentage of drug dissolved [1, 4]	cumulative percentage of drug dissolved [1, 5]	cumulative percentage of drug dissolved [1, 6]	cumulative percentage of drug dissolved [1, 7]	cumulative percentage of drug dissolved [1, 8]	cumulative percentage of drug dissolved [1, 9]	cumulative percentage of drug dissolved [1, 10]	cumulative percentage of drug dissolved [1, 11]	cumulative percentage of drug dissolved [1, 12]	cumulative percentage of drug dissolved [1, 13]	cumulative percentage of drug dissolved [1, 14]	Assay (drug content) [2, 15]	Assay (drug content) ([2]; Example 3 capsule, Initial)	Assay (drug content) [2, 17]	Assay (drug content) ([2]; Example 4 capsule, Initial)	cumulative percentage of drug dissolved [1, 20]	cumulative percentage of drug dissolved [1, 21]	other results
NS(=O)(=O)c1cc2c(cc1Cl)NCNS2(=O)=O [Hydrochlorothiazide]	–	–	–	–	–	–	100%	100%	88%	98%	91%	97%	–	–	99.3 % of label content	99.5 % of label content	82%	85%	Impurity: CTZ [2, 22]: 0.04 % of label content; Impurity: DSA [2, 22]: 0.07 % of label content; Impurity: CTZ ([2]; Example 4 capsule, Initial): 0.04 % of label content; Impurity: DSA ([2]; Example 4 capsule, Initial): 0.04 % of label content
